Source: patent publication US8907128B2, “Boron compound with amino acid skeleton containing cyclo ring-type ring” (Stella Pharma Corporation, priority 2010, dated 2014)

Test system: rat glima cells (C6)
Experiment: Cytotoxicity test (WST-8)
Assay type: cell-based
Settings: 48 hours culture with boron agent, WST-8 absorbance at 450 nm
Experimental: Using a 96-well microplate, rat glima cells (C6) were seeded at a density of 1.5×10^4 cells/ml per well and then cultured at room temperature (37° C., 5% CO2) for 16 hours. The culture fluid was taken out by suction and the culture fluids containing boron agents at various concentrations obtained in the Examples were added to respective wells in an amount of […] each. After culturing at room temperature (37° C., 5% CO2) for 48 hours, the culture fluid was taken out by suction, […] portions of WST-8 solution were added respectively, and culture was further carried out at room temperature (37° C., 5% CO2) for 4 hours. Using a microplate reader, the absorbance at a wavelength of 450 nm (reference wavelength: 655 nm) was measured and the absorbance of wells not containing cells was employed as background control, to determine each IC50 value.

| Compound | IC50 [µM] | IC50 (Rattus norvegicus) [µM] |
| --- | --- | --- |
| trans-1-amino-3-(dodecaboranylthiomethyl)cyclobutane-carboxylic acid trisodium salt [trans-ACBC-BSH] | 2100 | – |
| cis-1-amino-3-(dodecaboranylthiomethyl)cyclobutanecarboxylic acid trisodium salt [cis-ACBC-BSH] | 2500 | – |
| N[C@@H](Cc1ccc(B(O)O)cc1)C(=O)O [L-BPA, 4-borono-L-phenylalanine, reference compound] | – | > 2000 |
| 1-amino-4-[(undecahydrododecaboranyl-thio)methyl]cyclohexanone-1-carboxylic acid disodium salt [cis-ACHC-BSH] | < 300 | – |
